# How the values were obtained:
# A. fumigatus = test: Antifungal susceptibility assay (broth microdilution MIC); assay type: cell-based; details: Aspergillus fumigatus; A. fumigatus strain ATCC MYAA 3626, 35 °C, 48 h, no observable growth
# A. nidulans = test: as above; assay type: cell-based; details: Aspergillus nidulans, 35 °C, 48 h, no observable growth
# A. flavus = test: as above; assay type: cell-based; details: Aspergillus flavus, 35 °C, 48 h, no observable growth
# A. niger = test: as above; assay type: cell-based; details: Aspergillus niger, 35 °C, 48 h, no observable growth
# [1] = molecular target: CaAHAS (C. albicans AHAS); design: method as in earlier work; details: shown for comparison; ref 13 (Garcia et al.); cited from earlier work
MIC (A. fumigatus),MIC (A. nidulans),MIC (A. flavus),MIC (A. niger),Structure (SMILES),Ki [1]
> 100 µg/mL,> 100 µg/mL,> 100 µg/mL,> 100 µg/mL,CCOc1nc(F)cc2nc(S(=O)(=O)Nc3c(Cl)cccc3C(=O)OC)nn12 [CSM],4.6 ± 1.2 nM
> 100 µg/mL,> 100 µg/mL,> 100 µg/mL,> 100 µg/mL,COC(=O)c1csc(C)c1S(=O)(=O)NC(=O)n1nc(OC)n(C)c1=O [TCM],28000 nM
> 100 µg/mL,> 100 µg/mL,> 100 µg/mL,> 100 µg/mL,COc1cc(OC)n2nc(NS(=O)(=O)c3c(C(F)(F)F)ccnc3OC)nc2n1 [PYS],212 ± 18 nM

# Source: paper PMC8548585, “Triazolopyrimidine herbicides are potent inhibitors of Aspergillus fumigatus acetohydroxyacid synthase and potential antifungal drug leads” (Scientific Reports, 2021)
